Assay results published in patent publication US20220370416A1, “COMPOUNDS AND METHODS FOR TARGETED DEGRADATION OF KRAS” (Arvinas Operations, Inc., priority 2020, published 2022).

Legend:
[1] = biological target: T1, HiBit-KRAS^G12C (Homo sapiens, UniProt P01116, G12C); test: HiBit degradation assay in MiaPaCa-2 HiBit-KRas^G12C cells; format: cell-based; conditions: 24 hours; for Dmax / KRas^G12C-HiBiT (MiaPaCa; 0.5% DMSO) DMax: maximum degradation
Procedure: Reagents. SW1573 (CRL-2170) and MiaPaCa-2 (CRL-1420) cells were purchased from ATCC. Both cell lines are […] for the G12C mutation in KRAS. SW1573 cells were cultured in DMEM+F12+Glutamax (+Sodium Bicarbonate, +sodium pyruvate, Thermofisher scientific, #10565) supplemented with 10% FBS (Thermofisher scientific, #2060357) and 1% Antibiotic-Antimycotic (Thermofisher scientific, #15240096). MiaPaCa-2 cells were cultured in DMEM+Glutamax media (Thermofisher scientific, #10566) supplemented with 10% FBS (Thermofisher scientific, #2060357) and 1% Antibiotic-Antimycotic (Thermofisher scientific, #15240096). For degradation assays, 384 well plates were purchased from Corning (Corning® CellBIND® 384-well Flat Clear Bottom Black Polystyrene Microplates, Low Flange, #3770). Gambogic acid was purchased from Selleckchem (#S2448). Alamar blue was purchased from Thermofisher scientific (A50101) and used according to manufacturer instructions. The Nano-Glo® HiBit Lytic Detection System and Nano-Glo® HiBit Blotting System were purchased from Promega (#N3050 and #N2410) and used according to manufacturer instructions.
To create the MiaPaCa-2 HiBit-KRAS^G12C cell line, CRISPR-Cas9 was used to insert the HiBit tag onto the N-terminus of one or more of the four endogenous KRAS^G12C alleles. After knock-in of the tag, individual clones were isolated by single cell dilution and screened for HiBit insertion by PCR. Clones containing the HiBit tag were sequenced and one was identified that contained the desired HiBit-KRAS^G12C sequence at one allele while the remaining three KRAS^G12C alleles were unaffected. This line was used for all subsequent studies.
Either SW1573 HiBit-KRas^G12C or MiaPaCa-2 HiBit-KRas^G12C cells were plated at 9000 cells/well in a 384 well plate (Corning #3770). Exemplary heterobifunctional molecules and positive controls were diluted in the appropriate cell media and applied to the plated cells resulting in a final concentration titration of 10 μM to 20 nM in either 0.1% or 0.5% dimethyl sulfoxide (DMSO). Gambogic acid was used as a positive control for cytotoxicity and titrated from 10 μM to 78 nM. All assays were performed in triplicate. Cells were treated with compounds for 24 hours at 37° C. in an incubator containing 5% CO2. Following treatment, alamar blue was used to determine if any compounds led to a loss in cell viability after 24 hours. The 10× alamar blue reagent was added to a final concentration of 1× as recommended by the manufacturer and cells were returned to the incubator for 4 hours. Plates were then allowed to equilibrate to room temperature and fluorescence was measured using a Perkin-Elmer EnVision. After completion of the fluorescence read, the liquid from each well was removed and the cells were washed with PBS. The Nano-Glo® HiBiT detection reagent was prepared according to the manufacturer's instructions and added to each well after the PBS wash was removed. Following incubation at room temperature for 45 minutes, the luminescence was read using the ultra-sensitive luminescence aperture on the Envision instrument.
Fluorescence values from the alamar blue treatment were normalized to the DMSO only control for each compound titration. We hypothesized that compounds that led to a ≥50% loss in cell viability of the KRAS-independent SW1573 HiBit-KRas^G12C cells were likely generally cytotoxic and loss of HiBit-KRAS^G12C signal from these compounds may be due to lower cell number and not specific KRAS^G12C degradation. These points were therefore excluded from the data analysis for degradation. […]

[2] = biological target: T1, HiBit-KRAS^G12C; test: HiBit degradation assay in SW1573 HiBit-KRas^G12C cells; format: cell-based; design: expressed in transfected cells; host or cells: SW1573 (clone E6), modified pcDNA3.1 vector, TK promoter; conditions: 24 hours
Procedure, shortened: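 SW1573 cells stably expressing N-terminally HiBit-tagged KRAS G12C, under the TK promoter, were treated 24 h at 37 °C with 10 μM to 20 nM compound in 0.1% or 0.5% DMSO. Residual HiBit luminescence normalised to DMSO and fitted with a 4-parameter model for DC50 and Dmax. Points with ≥50% viability loss (alamar blue) excluded.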

[3] = MIA PaCa-2, read-out: KRas^G12C-HiBiT (MiaPaCa; 0.1% DMSO) DMax, MiaPaCa-2 HiBit-KRas^G12C cells, 0.1% DMSO
[4] = SW1573, read-out: KRas^G12C-HiBit (SW1573; 0.1% DMSO) Dmax**, SW1573 HiBit-KRas^G12C, 0.1% DMSO
[5] = SW1573 HiBit-KRas^G12C, 0.1% DMSO, read-out: KRas^G12C-HIBit (SW1573; 0.1% DMSO) DC50*
[6] = MIA PaCa-2, MiaPaCa-2 HiBit-KRas^G12C cells, 0.1% DMSO, read-out: KRas^G12C-HiBiT (MiaPaCa; 0.1% DMSO) DMax
[7] = read-out: KRas^G12C-HiBiT (MiaPaCa; 0.5% DMSO) IC50, MiaPaCa-2 HiBit-KRas^G12C cells, 0.5% DMSO
[8] = SW1573, SW1573 HiBit-KRas^G12C, 0.1% DMSO, read-out: KRas^G12C-HiBit (SW1573; 0.1% DMSO) Dmax**
[9] = MiaPaCa-2 HiBit-KRas^G12C cells, 0.5% DMSO
[10] = SW1573 HiBit-KRas^G12C, 0.5% DMSO

T1 sequence (P01116 1-186 isoform P01116-2 G12C limits assumed): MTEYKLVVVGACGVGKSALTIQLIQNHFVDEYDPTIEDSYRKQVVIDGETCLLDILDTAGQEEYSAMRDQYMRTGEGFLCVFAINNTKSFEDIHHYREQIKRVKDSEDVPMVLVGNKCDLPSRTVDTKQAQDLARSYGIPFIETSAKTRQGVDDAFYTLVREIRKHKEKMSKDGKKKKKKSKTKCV

For `C=C(F)C(=O)N1CCN(c2nc(OCCN3CCC(COCC(=O)N[C@H](C(=O)N4C[C@H](O)C[C@H]4C(=O)N[C@@H](C)c4ccc(-c5scnc5C)cc4)C(C)(C)C)CC3)nc3c(F)c(-c4cc(O)cc5ccccc45)c(Cl)cc23)C[C@@H]1CC#N` [Compound 15, (2S,4R)-1-[(2S)-2-[2-({1-[2-({6-chloro-4-[(3S)-3-(cyanomethyl)-4-(2-fluoroprop-2-enoyl)piperazin-1-yl]-8-fluoro-7-(3-hydroxynaphthalen-1-yl)quinazolin-2-yl}oxy)ethyl]piperidin-4-yl}methoxy)acetamido]-3,3-dimethylbutanoyl]-4-hydroxy-N-[(1S)-1-[4-(4-methyl-1,3-thiazol-5-yl)phenyl]ethyl]pyrrolidine-2-carboxamide], the Dmax [1, 3] was 35 to 70%, the Dmax [2, 4] was greater than 70% and the DC50 [2, 5] was 0.1 to 1 µM.

`C=CC(=O)N1CCN(c2nc(O[C@H](C)CN3CCC(OCCOCC(=O)N[C@H](C(=O)N4C[C@H](O)C[C@H]4C(=O)N[C@@H](C)c4ccc(-c5scnc5C)cc4)C(C)(C)C)CC3)nc3c(F)c(-c4cc(O)cc5ccccc45)c(Cl)cc23)[C@@H](C)C1` [Compound 39, (2S,4R)-1-[(2S)-2-{2-[2-({1-[(2R)-2-{[6-chloro-8-fluoro-7-(3-hydroxynaphthalen-1-yl)-4-[(2S)-2-methyl-4-(prop-2-enoyl)piperazin-1-yl]quinazolin-2-yl]oxy}propyl]piperidin-4-yl}oxy)ethoxy]acetamido}-3,3-dimethylbutanoyl]-4-hydroxy-N-[(1S)-1-[4-(4-methyl-1,3-thiazol-5-yl)phenyl]ethyl]pyrrolidine-2-carboxamide] gave a Dmax [1, 6] of less than 35%, a DC50 [1, 7] greater than 1 µM and a Dmax [2, 8] of 35 to 70%. The Dmax ([2]; SW1573, SW1573 HiBit-KRas^G12C, 0.5% DMSO, read-out: KRas^G12C-HiBiT (SW1573; 0.5% DMSO) Dmax**) was 35 to 70% and the DC50 [2, 5] was 0.1 to 1 µM.

Compound `C=CC(=O)N1CCN(c2nc(O[C@H](C)CN3CCC(C4CCN(CC(=O)N[C@H](C(=O)N5C[C@H](O)C[C@H]5C(=O)N[C@@H](C)c5ccc(-c6scnc6C)cc5)C(C)(C)C)CC4)CC3)nc3c(F)c(-c4cc(O)cc5ccccc45)c(Cl)cc23)CC1` [Compound 50, (2S,4R)-1-[(2S)-2-(2-{1′-[(2R)-2-{[6-chloro-8-fluoro-7-(3-hydroxynaphthalen-1-yl)-4-[4-(prop-2-enoyl)piperazin-1-yl]quinazolin-2-yl]oxy}propyl]-[4,4′-bipiperidin]-1-yl}acetamido)-3,3-dimethylbutanoyl]-4-hydroxy-N-[(1S)-1-[4-(4-methyl-1,3-thiazol-5-yl)phenyl]ethyl]pyrrolidine-2-carboxamide] has a Dmax [1, 3] of 35 to 70%, a Dmax [2, 4] of 35 to 70% and a DC50 [2, 5] greater than 1 µM.

`C=C(F)C(=O)N1CCN(c2nc(O[C@H](C)CN3CCC(COCC(=O)N[C@H](C(=O)N4C[C@H](O)C[C@H]4C(=O)N[C@@H](C)c4ccc(-c5scnc5C)cc4)C(C)(C)C)CC3)nc3c2CCN(c2cc(O)cc4ccccc24)C3)C[C@@H]1CC#N` [Compound 24, (2S,4R)-1-[(2S)-2-[2-({1-[(2R)-2-({4-[(3S)-3-(cyanomethyl)-4-(2-fluoroprop-2-enoyl)piperazin-1-yl]-7-(3-hydroxynaphthalen-1-yl)-5H,6H,7H,8H-pyrido[3,4-d]pyrimidin-2-yl}oxy)propyl]piperidin-4-yl}methoxy)acetamido]-3,3-dimethylbutanoyl]-4-hydroxy-N-[(1S)-1-[4-(4-methyl-1,3-thiazol-5-yl)phenyl]ethyl]pyrrolidine-2-carboxamide] gave a Dmax [1, 6] of less than 35%, a Dmax [2, 8] of less than 35% and a DC50 [2, 5] greater than 1 µM.

Work on `C=CC(=O)N1CCN(c2nc(OCCN3CCN(CCOCC(=O)N[C@H](C(=O)N4C[C@H](O)C[C@H]4C(=O)N[C@@H](C)c4ccc(-c5scnc5C)cc4)C(C)(C)C)CC3)nc3c(F)c(-c4cc(O)cc5ccccc45)c(Cl)cc23)CC1` [Compound 51, (2S,4R)-1-[(2S)-2-(2-{2-[4-(2-{[6-chloro-8-fluoro-7-(3-hydroxynaphthalen-1-yl)-4-[4-(prop-2-enoyl)piperazin-1-yl]quinazolin-2-yl]oxy}ethyl)piperazin-1-yl]ethoxy}acetamido)-3,3-dimethylbutanoyl]-4-hydroxy-N-[(1S)-1-[4-(4-methyl-1,3-thiazol-5-yl)phenyl]ethyl]pyrrolidine-2-carboxamide] yielded a Dmax [1, 6] of less than 35%, a DC50 ([1]; read-out: KRas^G12C-HiBiT (MiaPaCa; 0.1% DMSO) IC50, MiaPaCa-2 HiBit-KRas^G12C cells, 0.1% DMSO) of 0.1 to 1 µM and a Dmax [2, 8] of less than 35%. The DC50 [2, 5] was greater than 1 µM.

With `C=CC(=O)N1CCN(c2nc(OCCN3CCC(COc4cc([C@H](C(=O)N5C[C@H](O)C[C@H]5C(=O)N[C@@H](C)c5ccc(-c6scnc6C)cc5)C(C)C)on4)CC3)nc3c(F)c(-c4cc(O)cc5ccccc45)c(Cl)cc23)C[C@@H]1CC#N` (atropisomer, axis not shown) [Compound 173, (2S,4R)-1-[(2R)-2-[3-({1-[2-({6-chloro-4-[(3S)-3-(cyanomethyl)-4-(prop-2-enoyl)piperazin-1-yl]-8-fluoro-7-(3-hydroxynaphthalen-1-yl)quinazolin-2-yl}oxy)ethyl]piperidin-4-yl}methoxy)-1,2-oxazol-5-yl]-3-methylbutanoyl]-4-hydroxy-N-[(1S)-1-[4-(4-methyl-1,3-thiazol-5-yl)phenyl]ethyl]pyrrolidine-2-carboxamide] the “KRas^G12C-HiBiT (MiaPaCa; 0.5% DMSO) DMax” value [1, 9] was “A (A ≥ 70)”, the DC50 [1, 7] was less than 0.1 µM and the “KRas^G12C-HiBiT (SW1573; 0.5% DMSO) Dmax**” value [2, 10] was “A (A ≥ 70)”. The DC50 ([2]; read-out: KRas^G12C-HiBiT (SW1573; 0.5% DMSO) IC50***, SW1573 HiBit-KRas^G12C, 0.5% DMSO) was less than 0.1 µM.

In the case of `C=CC(=O)N1CCN(c2nc(OCCN3CCC(COCC(=O)N[C@H](C(=O)N4C[C@H](O)C[C@H]4C(=O)N[C@@H](C)c4ccc(-c5scnc5C)cc4)C(C)(C)C)CC3)nc3c(F)c(-c4cc(O)cc5ccccc45)c(Cl)cc23)C[C@@H]1CC#N` (atropisomer, axis not shown) [Compound 163, (2S,4R)-1-[(2S)-2-[2-({1-[2-({6-chloro-4-[(3S)-3-(cyanomethyl)-4-(prop-2-enoyl)piperazin-1-yl]-8-fluoro-7-(3-hydroxynaphthalen-1-yl)quinazolin-2-yl}oxy)ethyl]piperidin-4-yl}methoxy)acetamido]-3,3-dimethylbutanoyl]-4-hydroxy-N-[(1S)-1-[4-(4-methyl-1,3-thiazol-5-yl)phenyl]ethyl]pyrrolidine-2-carboxamide], the “KRas^G12C-HiBiT (MiaPaCa; 0.5% DMSO) DMax” value [1, 9] is reported as “A (A ≥ 70)” and the “KRas^G12C-HiBiT (SW1573; 0.5% DMSO) Dmax**” value [2, 10] is reported as “A (A ≥ 70)”.
